Assay results taken from ChEMBL document CHEMBL4765407, “Design, synthesis and high antitumor potential of new unsymmetrical bisacridine derivatives towards human solid tumors, specifically pancreatic cancers and their unique ability to stabilize DNA G-quadruplexes” (Eur J Med Chem, 2020).

Legend:
DU-145 [1] = assay: Cytotoxicity against human DU-145 cells assessed as reduction in cell viability measured after 72 hrs by SRB assay; type: functional, cell-based; details: DU-145, 72 h
HT-29 [2] = assay: Cytotoxicity against human HT-29 cells assessed as reduction in cell viability measured after 72 hrs by SRB assay; type: functional, cell-based; details: HT-29, 72 h
W256 [3] = assay: Antitumour activity against Walker 256 adenocarcinoma cells implanted in Wistar rat assessed as increase in animal survival rate by measuring T/C ratio at 20 mg/kg, ip qd for 3 days administered on day 3,4,5 after tumor cell transplantation; type: functional; details: time 3 day
LNCaP = assay: Cytotoxicity against human LNCaP cells assessed as reduction in cell viability measured after 72 hrs by SRB assay; type: functional, cell-based
NCI-H460 [4] = assay: Cytotoxicity against human NCI-H460 cells assessed as reduction in cell viability measured after 72 hrs by SRB assay; type: functional, cell-based; details: NCI-H460, 72 h
HCT-116 [5] = assay: Cytotoxicity against human HCT-116 cells assessed as reduction in cell viability measured after 72 hrs by SRB assay; type: functional, cell-based; details: HCT-116, 72 h
W256 [6] = assay: Antitumour activity against Walker 256 adenocarcinoma cells implanted in Wistar rat assessed as increase in animal survival rate by measuring T/C ratio at 5 mg/kg, ip qd for 3 days administered on day 3,4,5 after tumor cell transplantation; type: functional; details: time 3 day
MIA PaCa-2 [7] = assay: Cytotoxicity against human MIA PaCa-2 cells assessed as reduction in cell viability measured after 72 hrs by SRB assay; type: functional, cell-based; details: MIA PaCa-2, 72 h
W256 [8] = assay: Antitumour activity against Walker 256 adenocarcinoma cells implanted in Wistar rat assessed as increase in animal survival rate by measuring T/C ratio at 1.25 mg/kg, ip qd for 3 days administered on day 3,4,5 after tumor cell transplantation; type: functional; details: time 3 day
MCF7 = assay: Cytotoxicity against human MCF7 cells assessed as reduction in cell viability measured after 72 hrs by SRB assay; type: functional, cell-based; details: MCF7, 72 h
PANC-1 = assay: Cytotoxicity against human PANC-1 cells assessed as reduction in cell viability measured after 72 hrs by SRB assay; type: functional, cell-based; details: PANC-1, 72 h
Quadruplex DNA [9] = assay: Stabilization of 5'-FAM/3'-TAMRA labeled telomeric G4 quadruplex DNA F21T (unknown origin) assessed as change in melting temperature at 10 microM measured after 15 mins by FRET assay; type: nucleic-acid assay
MDA-MB-231 = assay: Cytotoxicity against human MDA-MB-231 cells assessed as reduction in cell viability measured after 72 hrs by SRB assay; type: functional, cell-based; details: MDA-MB-231, 72 h
Quadruplex DNA [10] = assay: Stabilization of 5'-FAM/3'-TAMRA labeled K-Ras G4 quadruplex DNA (unknown origin) assessed as change in melting temperature at 10 microM measured after 15 mins by FRET assay; type: nucleic-acid assay
[11] = Stabilization of ds 5'-FAM-d(TATAGCTATA-HEG-TATAGCTATA)-TAMRA-3' (unknown origin) assessed as change in melting temperature at 10 microM measured after 15 mins by FRET assay; details: Homo sapiens
Quadruplex DNA [12] = assay: Stabilization of 5'-FAM/3'-TAMRA labeled c-Myc promoter G4 quadruplex DNA FPu18 (unknown origin) assessed as change in melting temperature at 10 microM measured after 15 mins by FRET assay; type: nucleic-acid assay
ASPC1 = assay: Cytotoxicity against human ASPC1 cells assessed as reduction in cell viability measured after 72 hrs by SRB assay; type: functional, cell-based; details: ASPC1, 72 h
HT-29 [13] = assay: Antitumour activity against human HT-29 cells xenografted in Crl:Nu-Foxnl nu mouse assessed as inhibition of tumour growth at total effective dose of 24 mg/kg, ip measured on day 21; type: functional; details: HT-29, ip, 504 h, time 21 day, read-out: TGI
HT-29 [14] = assay: Antitumour activity against human HT-29 cells xenografted in Crl:Nu-Foxnl nu mouse assessed as inhibition of tumour growth at total effective dose of 24 mg/kg, iv measured on day 21; type: functional; details: HT-29, iv, 504 h, time 21 day, read-out: TGI
UMUC3 = assay: Cytotoxicity against human UMUC3 cells assessed as reduction in cell viability measured after 72 hrs by SRB assay; type: functional, cell-based; details: UMUC3, 72 h
W256 [15] = assay: Antitumour activity against Walker 256 adenocarcinoma cells implanted in Wistar rat assessed as increase in animal survival rate by measuring T/C ratio at 4 mg/kg, ip qd for 3 days administered on day 3,4,5 after tumor cell transplantation; type: functional; details: time 3 day
NCI-H460 [16] = assay: Antitumour activity against human NCI-H460 cells xenografted in Crl:Nu-Foxnl nu mouse assessed as inhibition of tumour growth at total effective dose of 30 mg/kg, iv measured on day 14; type: functional; details: 336 h, time 14 day, read-out: TGI
PC-3 = assay: Cytotoxicity against human PC-3 cells assessed as reduction in cell viability measured after 72 hrs by SRB assay; type: functional, cell-based; details: PC-3, 72 h
DU-145 [17] = assay: Antitumour activity against human DU-145 cells xenografted in Crl:Nu-Foxnl nu mouse assessed as inhibition of tumour growth at total effective dose of 24 mg/kg, ip measured on day 35; type: functional; details: DU-145, ip, 840 h, time 35 day, read-out: TGI
HCT-116 [18] = assay: Antitumour activity against human HCT-116 cells xenografted in Crl:Nu-Foxnl nu mouse assessed as inhibition of tumour growth at total effective dose of 5 mg/kg, ip measured on day 16; type: functional; details: HCT-116, ip, 384 h, time 16 day, read-out: TGI
DU-145 [19] = assay: Antitumour activity against human DU-145 cells xenografted in Crl:Nu-Foxnl nu mouse assessed as inhibition of tumour growth at total effective dose of 6 mg/kg, ip measured on day 35; type: functional; details: DU-145, ip, 840 h, time 35 day, read-out: TGI
W256 [20] = assay: Antitumour activity against Walker 256 adenocarcinoma cells implanted in Wistar rat assessed as increase in animal survival rate by measuring T/C ratio at 1 mg/kg, ip qd for 3 days administered on day 3,4,5 after tumor cell transplantation; type: functional; details: time 3 day
MIA PaCa-2 [21] = assay: Antitumour activity against human MIA PaCa-2 cells xenografted in Crl:Nu-Foxnl nu mouse assessed as inhibition of tumour growth at total effective dose of 32 mg/kg, iv measured on day 26; type: functional; details: MIA PaCa-2, iv, 624 h, time 26 day, read-out: TGI
W256 [22] = assay: Antitumour activity against Walker 256 adenocarcinoma cells implanted in Wistar rat assessed as increase in animal survival rate by measuring T/C ratio at 40 mg/kg, ip qd for 3 days administered on day 3,4,5 after tumor cell transplantation; type: functional; details: time 3 day
W256 [23] = assay: Antitumour activity against Walker 256 adenocarcinoma cells implanted in Wistar rat assessed as increase in animal survival rate by measuring T/C ratio at 10 mg/kg, ip qd for 3 days administered on day 3,4,5 after tumor cell transplantation; type: functional; details: time 3 day

## Cc1ccc([N+](=O)[O-])c2c(NCCCN3CCN(CCCNc4ccc([N+](=O)[O-])c5[nH]c6ccc(O)cc6c(=O)c45)CC3)c3ccccc3nc12
DU-145 [1]
  IC50: 61 nM
HT-29 [2]
  IC50: 233 nM
W256 [3]
  T/C: 250%
LNCaP
  IC50: 4030 nM
NCI-H460 [4]
  IC50: 47 nM

## Cc1ccc([N+](=O)[O-])c2c(NCCNc3ccc(C)c4[nH]c5ccccc5c(=O)c34)c3ccccc3nc12
DU-145 [1]
  IC50: 417 nM
HT-29 [2]
  IC50: 1180 nM
HCT-116 [5]
  IC50: 1270 nM
NCI-H460 [4]
  IC50: 370 nM
W256 [6]
  T/C: 750%

## Cc1ccc(NCCCNCCCNc2c3ccccc3nc3cccc([N+](=O)[O-])c23)c2c(=O)c3ccccc3[nH]c12
DU-145 [1]
  IC50: 184 nM
MIA PaCa-2 [7]
  IC50: 280 nM
W256 [8]
  T/C: 300%
MCF7
  IC50: 228 nM
PANC-1
  IC50: 377 nM

## NC(CCN1CCN(CCCNc2ccc3nnn4c5ccc(O)cc5c(=O)c2c34)CC1)c1ccc2nc3ccccc3cc2c1[N+](=O)[O-] (stereo not given)
DU-145 [1]
  IC50: 17 nM
Quadruplex DNA [9]
  ΔTm: 27.5 °C
MIA PaCa-2 [7]
  IC50: 17 nM
MDA-MB-231
  IC50: 29 nM
Quadruplex DNA [10]
  ΔTm: 36.5 °C
PANC-1
  IC50: 36 nM
[11]
  ΔTm: 5.9 °C
Quadruplex DNA [12]
  ΔTm: 37.5 °C
ASPC1
  IC50: 137 nM

## Cc1ccc([N+](=O)[O-])c2c(NCCCN(C)CCCNc3ccc(C)c4[nH]c5ccccc5c(=O)c34)c3ccccc3nc12
DU-145 [1]
  IC50: 190 nM
HT-29 [2]
  IC50: 123 nM
HCT-116 [5]
  IC50: 120 nM
LNCaP
  IC50: 197 nM
NCI-H460 [4]
  IC50: 71 nM
W256 [6]
  T/C: 1300%

## Cc1ccc([N+](=O)[O-])c2c(NCCCN(C)CCCNc3ccc([N+](=O)[O-])c4[nH]c5ccc(O)cc5c(=O)c34)c3ccccc3nc12
DU-145 [1]
  IC50: 73 nM
HT-29 [2]
  IC50: 200 nM
W256 [3]
  T/C: 400%
LNCaP
  IC50: 377 nM
NCI-H460 [4]
  IC50: 46 nM

## Cc1ccc(NCCCN(C)CCCNc2c3ccccc3nc3cccc([N+](=O)[O-])c23)c2c(=O)c3ccccc3[nH]c12
DU-145 [1]
  IC50: 25 nM
HT-29 [2]
  IC50: 49 nM
MDA-MB-231
  IC50: 39 nM
PANC-1
  IC50: 40 nM

## Nc1ccn([C@@H]2O[C@H](CO)[C@@H](O)C2(F)F)c(=O)n1 [GEMCITABINE]
PANC-1
  IC50: 22 nM

## O=c1c2cc(O)ccc2[nH]c2c([N+](=O)[O-])ccc(NCCCN3CCN(CCCNc4c5ccccc5nc5cccc([N+](=O)[O-])c45)CC3)c12
DU-145 [1]
  IC50: 20 nM
Quadruplex DNA [9]
  ΔTm: 16 °C
HT-29 [2]
  IC50: 38 nM
MIA PaCa-2 [7]
  IC50: 12 nM
HT-29 [13]
  inhibition in vivo at 24 mg/kg: 25%
HCT-116 [5]
  IC50: 11 nM
HT-29 [14]
  inhibition in vivo at 24 mg/kg: 39%
UMUC3
  IC50: 33 nM
LNCaP
  IC50: 117 nM
MDA-MB-231
  IC50: 12 nM
Quadruplex DNA [10]
  ΔTm: 26.6 °C
MCF7
  IC50: 61 nM
NCI-H460 [4]
  IC50: 20 nM
W256 [15]
  T/C: 300%
NCI-H460 [16]
  inhibition in vivo at 30 mg/kg: 24%
PANC-1
  IC50: 43 nM
PC-3
  IC50: 31 nM
[11]
  ΔTm: 3.3 °C
Quadruplex DNA [12]
  ΔTm: 32.6 °C
ASPC1
  IC50: 210 nM

## CN(CCCNc1c2ccccc2nc2cccc([N+](=O)[O-])c12)CCCNc1ccc([N+](=O)[O-])c2[nH]c3ccc(O)cc3c(=O)c12
DU-145 [1]
  IC50: 43 nM
Quadruplex DNA [9]
  ΔTm: 34 °C
DU-145 [17]
  inhibition in vivo at 24 mg/kg: 52%
HCT-116 [18]
  inhibition in vivo at 5 mg/kg: 32%
HT-29 [2]
  IC50: 22 nM
MIA PaCa-2 [7]
  IC50: 24 nM
HCT-116 [5]
  IC50: 15 nM
UMUC3
  IC50: 14 nM
LNCaP
  IC50: 53 nM
MDA-MB-231
  IC50: 20 nM
Quadruplex DNA [10]
  ΔTm: 29.7 °C
MCF7
  IC50: 74 nM
NCI-H460 [4]
  IC50: 14 nM
PANC-1
  IC50: 32 nM
DU-145 [19]
  inhibition in vivo at 6 mg/kg: 60%
W256 [20]
  T/C: 350%
MIA PaCa-2 [21]
  inhibition in vivo at 32 mg/kg: 30%
PC-3
  IC50: 52 nM
Quadruplex DNA [12]
  ΔTm: 26.3 °C
ASPC1
  IC50: 135 nM

## Cc1ccc([N+](=O)[O-])c2c(NCCNCCNc3ccc(C)c4[nH]c5ccccc5c(=O)c34)c3ccccc3nc12
DU-145 [1]
  IC50: 599 nM
W256 [22]
  T/C: 250%
HT-29 [2]
  IC50: 413 nM
LNCaP
  IC50: 250 nM

## Cc1ccc([N+](=O)[O-])c2c(NCCCNCCNCCCNc3ccc([N+](=O)[O-])c4[nH]c5ccccc5c(=O)c34)c3ccccc3nc12
DU-145 [1]
  IC50: 88 nM
MIA PaCa-2 [7]
  IC50: 110 nM
PANC-1
  IC50: 142 nM
W256 [6]
  T/C: 350%

## Cc1ccc([N+](=O)[O-])c2c(NCCCNCCCNc3ccc([N+](=O)[O-])c4[nH]c5ccc(O)cc5c(=O)c34)c3ccccc3nc12
DU-145 [1]
  IC50: 78 nM
HT-29 [2]
  IC50: 129 nM
W256 [23]
  T/C: 1500%
HCT-116 [5]
  IC50: 88 nM
LNCaP
  IC50: 123 nM
NCI-H460 [4]
  IC50: 73 nM

## CCc1c2c(nc3ccc(OC(=O)N4CCC(N5CCCCC5)CC4)cc13)-c1cc3c(c(=O)n1C2)COC(=O)[C@]3(O)CC [IRINOTECAN]
HT-29 [2]
  IC50: 9500 nM
HCT-116 [5]
  IC50: 9700 nM

## O=c1c2ccccc2[nH]c2c([N+](=O)[O-])ccc(NCCCNCCNCCCNc3c4ccccc4nc4cccc([N+](=O)[O-])c34)c12
DU-145 [1]
  IC50: 55 nM
MIA PaCa-2 [7]
  IC50: 46 nM
W256 [8]
  T/C: 250%
PANC-1
  IC50: 60 nM
